{
  "source": "patent US20110262355A1",
  "about": "“COMPOSITIONS COMPRISING ENZYME-CLEAVABLE OPIOID PRODRUGS AND INHIBITORS THEREOF” (priority 2010, published 2011)",
  "key": {"[1]": {"assay": "Oral administration of Compound PC-4 and SBTI trypsin inhibitor to rats", "settings": "for Cmax (ng/mL HM) / Tmax: HM in rat plasma, PC-4 20 mg/kg"}, "[2]": {"molecular_target": "T1, trypsin from bovine pancreas (Bos taurus, UniProt P00760)", "T1 sequence (P00760 24-246)": "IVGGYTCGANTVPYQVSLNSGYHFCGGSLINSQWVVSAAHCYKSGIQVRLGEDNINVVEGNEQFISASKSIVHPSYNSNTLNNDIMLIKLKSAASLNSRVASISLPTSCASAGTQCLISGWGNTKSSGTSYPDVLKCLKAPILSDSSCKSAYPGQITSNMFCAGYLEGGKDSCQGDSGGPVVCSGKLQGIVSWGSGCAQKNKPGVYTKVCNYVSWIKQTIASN", "assay": "In vitro trypsin conversion of prodrugs to hydromorphone and inhibition by trypsin inhibitor", "settings": "with trypsin inhibitor 3,089 uM Compound 109", "description": "The reactions were conducted at 37° C. for 24 hr. Samples were collected at specified time points, transferred into 0.5% formic acid in acetonitrile to stop trypsin activity and stored at less than −70° C. until analysis by LC-MS/MS.\nThe results are expressed as half-life of prodrug when exposed to trypsin (i.e., Prodrug trypsin half-life) in hours and rate of formation of HM per unit of trypsin."}, "[3]": {"settings": "HM in rat plasma, PO, PC-4 20 mg/kg"}, "[4]": {"settings": "male, Sprague Dawley, rat, in vivo"}, "human μ-opioid receptor": {"molecular_target": "human μ-opioid receptor (Homo sapiens, UniProt P35372)", "sequence (P35372 whole entry)": "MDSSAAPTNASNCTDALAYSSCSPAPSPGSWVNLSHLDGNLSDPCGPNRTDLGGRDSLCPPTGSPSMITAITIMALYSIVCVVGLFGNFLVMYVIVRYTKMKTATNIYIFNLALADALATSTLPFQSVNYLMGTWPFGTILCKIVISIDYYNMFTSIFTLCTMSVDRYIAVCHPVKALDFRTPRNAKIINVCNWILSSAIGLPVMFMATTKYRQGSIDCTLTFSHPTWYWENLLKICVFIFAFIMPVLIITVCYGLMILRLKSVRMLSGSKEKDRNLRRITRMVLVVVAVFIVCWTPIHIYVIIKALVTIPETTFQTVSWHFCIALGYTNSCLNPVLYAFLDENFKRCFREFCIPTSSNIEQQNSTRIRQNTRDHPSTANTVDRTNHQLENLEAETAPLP", "assay": "cell-based", "parameters": "expressed in transfected cells; host or cells: CHO", "settings": "agonist response, cAMP (HTRF); recombinant CHO cells; 37° C., 10 min; three separate experiments", "procedure": "This Example measures the ability of certain compounds of the present disclosure to effect an agonist response when exposed to recombinant human μ-opioid receptor expressed in CHO cells.\nA. and Uhl, G. R. (1994). […] The control reaction included 1 μM DAMGO. The reaction mixtures were incubated at 37° C. for 10 min, and the reaction product was cyclic AMP (cAMP). The samples were submitted to homogeneous time resolved fluorescence (HTRF®). EC50 values (concentration producing a half-maximal specific response) were determined by non-linear regression fit using the Hillplot software."}, "[5]": {"assay": "In vivo tolerability of Compound KC-3 in rats (IV)", "settings": "rat, Compound KC-3 97 μmol/kg, tolerated", "procedure": "Male naïve Sprague-Dawley rats, 4 per dose, were used in the study. Rats were weighed, and then placed under a heat lamp for 15-20 minutes to dilate the lateral tail veins. […] Before dosing, rats were placed in Broome restrainers and the drug was introduced into one of the tail veins using a syringe and needle. […] Blood samples were collected 5 minutes post-dose via the saphenous vein. The rats were observed up to 24 hours."}, "[6]": {"assay": "In vitro stability of Compound KC-3 to household chemicals and enzyme preparations", "format": "physicochemical", "settings": "vodka, baking soda, WINDEX, vinegar (RT or 80° C.), GNC Super Digestive, tenderizer, subtilisn (RT); 1 or 24 hr", "description": "Samples were incubated as described. Aliquots were removed at 1 hr and 24 hr and stabilized by adding each to a solution of 50% or 100% of 85% phosphoric acid solution to achieve a final pH of less than or equal to pH 4. The stabilized aliquots were then diluted 4- to 6-fold with water, vortex-mixed and applied to HPLC."}, "trypsin [7]": {"molecular_target": "T2, trypsin (Bos taurus, UniProt P00760)", "T2 sequence (P00760 24-246)": "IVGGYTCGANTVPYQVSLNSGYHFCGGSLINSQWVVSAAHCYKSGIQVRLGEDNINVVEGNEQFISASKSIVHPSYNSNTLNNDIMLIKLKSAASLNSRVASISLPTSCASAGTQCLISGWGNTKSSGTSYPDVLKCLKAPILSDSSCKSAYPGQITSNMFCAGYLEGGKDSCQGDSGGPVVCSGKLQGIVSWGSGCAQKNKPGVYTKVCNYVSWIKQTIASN", "assay": "In vitro trypsin-mediated release of drug from ketone-modified opioid prodrugs KC-3 to KC-6, effect of Compound 109", "settings": "bovine, trypsin from bovine pancreas, h Average ± sd", "excerpt": "(§1) Other reaction and sample treatment conditions were as described above."}, "[8]": {"molecular_target": "T1, trypsin from bovine pancreas", "assay": "In vitro trypsin-mediated release of drug from ketone-modified opioid prodrugs KC-3 to KC-6, effect of Compound 109", "settings": "0.761 mM prodrug, 37° C., no trypsin inhibitor", "excerpt": "as §1"}, "[9]": {"settings": "male, Sprague Dawley, rat, in vivo", "remark": "listed apart in the source"}, "[10]": {"assay": "Pharmacokinetics of Compound KC-6 following PO administration to rats", "settings": "rat; PO Compound KC-6"}, "[11]": {"assay": "Pharmacokinetics of Compound KC-5 following PO administration to rats", "settings": "rat; PO Compound KC-5"}, "[12]": {"settings": "rat"}, "[13]": {"assay": "Oral administration of Compound PC-1 and SBTI trypsin inhibitor to rats (hydromorphone in blood)", "settings": "rat blood, PC-1 20 mg/kg with SBTI 10 to 1000 mg/kg"}, "[14]": {"assay": "Oral administration of Compound PC-3 and SBTI trypsin inhibitor to rats", "format": "in vivo", "settings": "rat plasma, PC-3 20 mg/kg with SBTI 500 mg/kg", "quoted_text": "Dosing, sampling and analysis procedures were as described in Example 16."}, "[15]": {"assay": "Oral administration of Compound PC-2 and SBTI trypsin inhibitor to rats", "format": "in vivo, rat", "settings": "rat plasma, PC-2 20 mg/kg with SBTI 500 mg/kg"}, "trypsin [16]": {"molecular_target": "T2, trypsin", "assay": "In vitro IC50 of trypsin inhibitors, modified trypsin assay (Bergmeyer)", "format": "biochemical", "settings": "trypsin inhibition"}, "[17]": {"settings": "pH 8, Pro-drug trypsin half-life, 0.761 mM prodrug, 241 BAEE U trypsin/mL, 37° C., no trypsin inhibitor"}, "[18]": {"settings": "male, Sprague Dawley, in vivo, iv, 10 mg/kg"}},
  "note": "Like-named read-outs stand apart in the source and are kept apart here.",
  "data": [
    {"molecule": "CCN(CCNC(=O)[C@H](CCCNC(=N)N)NC(C)=O)C(=O)Oc1ccc2c3c1OC1C(=O)CCC4C(C2)N(C)CCC314", "note": "(stereo partly drawn) [Compound PC-4, [2-((S)-2-Acetylamino-5-guanidino-pentanoylamino)-ethyl]-ethyl-carbamic acid hydromorphone ester]", "values": [
      {"measurement": "Cmax (ng/mL HM)", "setting": "[1]; SBTI 0 mg/kg, 7 rats", "result": "7.7 ± 2.3", "unit": "ng/mL"},
      {"measurement": "Tmax", "setting": "[1]; SBTI 0 mg/kg, 7 rats", "result": 2.3, "unit": "h"},
      {"measurement": "Cmax (ng/mL HM)", "setting": "[1]; SBTI 500 mg/kg, 4 rats", "result": "7.5 ± 2.1", "unit": "ng/mL"},
      {"measurement": "Tmax", "setting": "[1]; SBTI 500 mg/kg, 4 rats", "result": 6.5, "unit": "h"},
      {"measurement": "Rate of HM formation, umols/h/umol trypsin Average ± sd", "setting": "[2]", "result": "3.27 ± 1.87", "unit": "umols/h/umol trypsin"},
      {"measurement": "Cmax (ng/mL HM)", "setting": "[3]; Compound 101 0 mg/kg, 7 rats", "result": "7.7 ± 2.3", "unit": "ng/mL"},
      {"measurement": "Tmax", "setting": "[3]; Compound 101 0 mg/kg, 7 rats", "result": 2.3, "unit": "h"},
      {"measurement": "Cmax (ng/mL HM)", "setting": "[3]; Compound 101 10 mg/kg, 4 rats", "result": "4.8 ± 1.4", "unit": "ng/mL"},
      {"measurement": "Tmax", "setting": "[3]; Compound 101 10 mg/kg, 4 rats", "result": 6.0, "unit": "h"}
    ]},
    {"molecule": "COc1ccc2c3c1O[C@H]1C(OC(=O)N(C)CCNC(=O)[C@H](CCCNC(=N)N)NC(=O)CC(=O)O)=CC[C@@]4(O)[C@@H](C2)N(C)CC[C@]314", "note": "[Compound KC-3, N-{(S)-4-guanidino-1-[2-(methyl-[(5R,9R,13S,14S)-4,5a-epoxy-6,7-didehydro-14-hydroxy-3-methoxy-17-methylmorphinan-6-oxy]carbonyl-amino)-ethylcarbamoyl]-butyl}-malonamic acid]", "values": [
      {"measurement": "Compound conc. in CSF", "setting": "[4]", "result": 34.1, "unit": "ng/mL"},
      {"measurement": "Compound conc. in Plasma", "setting": "[4]", "result": "59,225 ng/mL"},
      {"measurement": "Plasma/CSF partitioning coefficient", "setting": "[4]", "result": "1,737"},
      {"measurement": "EC50", "setting": "human μ-opioid receptor", "result": 1600, "unit": "nM"},
      {"measurement": "time to recover to normal activity", "setting": "[5]", "result": "≤ 2", "unit": "min"},
      {"measurement": "conversion to oxycodone", "setting": "[6]", "result": "less than 10%"},
      {"measurement": "half-life at 0.761 mM", "setting": "trypsin [7]; [17]", "result": "8.92 ± 1.91", "unit": "h"},
      {"measurement": "half-life at 0.761 mM", "setting": "trypsin [7]; pH 8, with Compound 109 (trypsin inhibitor), 2 µM, Pro-drug trypsin half-life, with trypsin inhibitor Compound 109 2 uM", "result": "43.3 ± 40.6", "unit": "h"},
      {"measurement": "Rate of oxycodone formation, umol/h/BAEE U Average ± sd", "setting": "[8]; 241 BAEE U trypsin/mL", "result": "0.0684 ± 0.0009", "unit": "umol/h/BAEE U"}
    ]},
    {"molecule": "COc1ccc2c3c1O[C@H]1C(OC(=O)N(C)C[C@H](NC(=O)[C@H](CCCNC(=N)N)NC(C)=O)C(=O)N(C)CC(=O)O)=CC[C@@]4(O)[C@@H](C2)N(C)CC[C@]314", "note": "[Compound KC-6, ({(S)-2-((S)-2-Acetylamino-5-guanidino-pentanoylamino)-3-[(oxycodone-enyloxycarbonyl)-methyl-amino]-propionyl]-methyl-amino)-acetic acid]", "values": [
      {"measurement": "Compound conc. in CSF", "setting": "[9]", "result": 74.1, "unit": "ng/mL"},
      {"measurement": "Compound conc. in Plasma", "setting": "[9]", "result": "60,400 ng/mL"},
      {"measurement": "Plasma/CSF partitioning coefficient", "setting": "[9]", "result": 815},
      {"measurement": "plasma/CSF partitioning coefficient", "setting": "[9]", "result": 815},
      {"measurement": "EC50", "setting": "human μ-opioid receptor", "result": 1800, "unit": "nM"},
      {"measurement": "oxycodone plasma concentrations compared to administration of oxycodone", "setting": "[10]", "result": "suppressed Cmax and AUC and delayed Tmax compared to administration of oxycodone"},
      {"measurement": "Rate of oxycodone formation, umol/h/BAEE U Average ± sd", "setting": "[8]; 241 BAEE U trypsin/mL", "result": "0.0118 ± 0.0042", "unit": "umol/h/BAEE U"},
      {"measurement": "Rate of oxycodone formation, umol/h/BAEE U Average ± sd", "setting": "[8]; 4815 BAEE U trypsin/mL", "result": "0.00571 ± 0.0002", "unit": "umol/h/BAEE U"}
    ]},
    {"molecule": "COc1ccc2c3c1O[C@H]1C(OC(=O)N(CCCCCC(=O)O)CCNC(=O)[C@H](CCCNC(=N)N)NC(C)=O)=CC[C@@]4(O)[C@@H](C2)N(C)CC[C@]314", "note": "[Compound KC-5, 6-{[2-(2-Acetylamino-5-guanidino-pentanoylamino)-ethyl]-[(5R,9R,13S,14S)-4,5a-epoxy-6,7-didehydro-14-hydroxy-3-methoxy-17-methylmorphinan-6-oxy]-1-enyloxycarbonyl-amino}-hexanoic acid]", "values": [
      {"measurement": "oxycodone plasma concentrations compared to administration of oxycodone", "setting": "[11]", "result": "suppressed Cmax and AUC and delayed Tmax compared to administration of oxycodone"},
      {"measurement": "plasma/CSF partitioning coefficient", "setting": "[12]; male, Sprague Dawley, in vivo", "result": "1,508"},
      {"measurement": "Compound conc. in CSF", "setting": "[12]; [18]", "result": 36.4, "unit": "ng/mL"},
      {"measurement": "Compound conc. in Plasma", "setting": "[12]; [18]", "result": "54,900 ng/mL"},
      {"measurement": "Plasma/CSF partitioning coefficient", "setting": "[12]; [18]", "result": "1,508"},
      {"measurement": "relative plasma/CSF partitioning coefficient of prodrug to oxycodone (fold less CSF penetrant)", "setting": "[12]; IV, 1,508/4.8", "result": "about 316 fold"},
      {"measurement": "EC50", "setting": "human μ-opioid receptor", "result": 2000, "unit": "nM"},
      {"measurement": "half-life at 0.761 mM", "setting": "trypsin [7]; [17]", "result": "1.2 ± 0.04", "unit": "h"},
      {"measurement": "Rate of oxycodone formation, umol/h/BAEE U Average ± sd", "setting": "[8]; 241 BAEE U trypsin/mL", "result": "0.135 ± 0.005", "unit": "umol/h/BAEE U"}
    ]},
    {"molecule": "SBTI: trypsin inhibitor from Glycine max (soybean) (Catalog No. 93620, ˜10,000 units per mg, Sigma-Aldrich) (protein, UniProt P01070 25-205, looked up) Trypsin inhibitor A: DFVLDNEGNPLENGGTYYILSDITAFGGIRAAPTGNERCPLTVVQSRNELDKGIGTIISSPYRIRFIAEGHPLSLKFDSFAVIMLCVGIPTEWSVVEDLPEGPAVKIGENKDAMDGWFRLERVSDDEFNNYKLVFCPQQAEDDKCGDIGISIDHDDGTRRLVVSKNKPLVVQFQKLDKESL", "values": [
      {"measurement": "effect of inhibitor on prodrug's release of hydromorphone", "setting": "[13]", "result": "attenuates Compound PC-1's ability to release hydromorphone in a dose-dependent manner"},
      {"measurement": "effect of inhibitor on prodrug's release of hydromorphone", "setting": "[14]", "result": "attenuates Compound PC-3's ability to release hydromorphone, both with respect to suppressing Cmax and delaying Tmax"},
      {"measurement": "effect of inhibitor on prodrug's release of hydromorphone", "setting": "[15]", "result": "attenuates Compound PC-2's ability to release hydromorphone, both with respect to suppressing Cmax and delaying Tmax"},
      {"measurement": "effect of inhibitor on prodrug's release of hydromorphone", "setting": "[1]; rat plasma, PC-4 20 mg/kg with SBTI 500 mg/kg", "result": "attenuates Compound PC-4's ability to release hydromorphone, at least with respect to delaying Tmax"},
      {"measurement": "IC50", "setting": "trypsin [16]; Table 7 (Example 19)", "result": 270, "unit": "nM"},
      {"measurement": "IC50", "setting": "trypsin [16]; Table 20 (Example 40)", "result": 270, "unit": "nM"}
    ]}
  ]
}
